Laboratory results from BindingDB's records for doi:10.1021/acs.jmedchem.7b00306 (Bayer, 2017).
pIC50: −log10 of the molar value.

Target: T1, Bromodomain-containing protein 1 (Homo sapiens, UniProt O95696)
T1 sequence (O95696 whole entry): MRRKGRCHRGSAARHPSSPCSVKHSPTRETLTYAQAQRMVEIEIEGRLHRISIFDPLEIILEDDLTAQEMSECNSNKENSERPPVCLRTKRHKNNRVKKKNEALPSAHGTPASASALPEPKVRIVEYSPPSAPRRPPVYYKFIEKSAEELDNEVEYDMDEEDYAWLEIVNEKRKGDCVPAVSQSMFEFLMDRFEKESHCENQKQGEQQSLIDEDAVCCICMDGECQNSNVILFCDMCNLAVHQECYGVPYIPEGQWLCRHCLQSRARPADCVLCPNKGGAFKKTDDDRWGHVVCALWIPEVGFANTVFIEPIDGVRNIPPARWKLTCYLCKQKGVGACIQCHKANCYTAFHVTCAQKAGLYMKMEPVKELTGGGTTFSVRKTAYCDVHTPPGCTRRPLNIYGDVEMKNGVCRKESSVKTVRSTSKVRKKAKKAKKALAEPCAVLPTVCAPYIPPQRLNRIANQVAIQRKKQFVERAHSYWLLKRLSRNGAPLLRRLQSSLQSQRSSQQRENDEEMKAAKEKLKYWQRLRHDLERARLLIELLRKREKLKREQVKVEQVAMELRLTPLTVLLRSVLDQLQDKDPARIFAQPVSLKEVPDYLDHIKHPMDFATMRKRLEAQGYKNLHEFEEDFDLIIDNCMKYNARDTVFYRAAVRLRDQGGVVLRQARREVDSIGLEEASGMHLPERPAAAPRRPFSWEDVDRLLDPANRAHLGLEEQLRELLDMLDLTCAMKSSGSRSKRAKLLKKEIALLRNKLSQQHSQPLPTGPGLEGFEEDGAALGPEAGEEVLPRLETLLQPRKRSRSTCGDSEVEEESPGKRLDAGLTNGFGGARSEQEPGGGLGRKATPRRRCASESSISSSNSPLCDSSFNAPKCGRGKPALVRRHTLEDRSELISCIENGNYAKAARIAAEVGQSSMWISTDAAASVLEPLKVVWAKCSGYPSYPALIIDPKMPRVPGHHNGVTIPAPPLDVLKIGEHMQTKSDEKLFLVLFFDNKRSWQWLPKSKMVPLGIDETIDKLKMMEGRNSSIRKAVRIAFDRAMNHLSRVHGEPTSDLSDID
Assay: Alphascreen assay. Binding to BRD1A (domain start/stop: E556-A688) by alphascreen assay

SMILES: COc1cc2c(cc1NS(=O)(=O)c1ccc(Br)cc1C)n(C)c(=O)n2C [OF-1]
- pIC50: 5.77
